Results reported in ChEMBL document CHEMBL1129278, “Binding of arylpiperazines, (aryloxy)propanolamines, and tetrahydropyridylindoles to the 5-HT1A receptor: contribution of the molecular lipophilicity potential to three-dimensional quantitative structure-affinity relationship models” (J Med Chem, 1996).

molecular target: T1, 5-hydroxytryptamine receptor 1A (Rattus norvegicus, UniProt P19327)
T1 sequence (P19327 whole entry): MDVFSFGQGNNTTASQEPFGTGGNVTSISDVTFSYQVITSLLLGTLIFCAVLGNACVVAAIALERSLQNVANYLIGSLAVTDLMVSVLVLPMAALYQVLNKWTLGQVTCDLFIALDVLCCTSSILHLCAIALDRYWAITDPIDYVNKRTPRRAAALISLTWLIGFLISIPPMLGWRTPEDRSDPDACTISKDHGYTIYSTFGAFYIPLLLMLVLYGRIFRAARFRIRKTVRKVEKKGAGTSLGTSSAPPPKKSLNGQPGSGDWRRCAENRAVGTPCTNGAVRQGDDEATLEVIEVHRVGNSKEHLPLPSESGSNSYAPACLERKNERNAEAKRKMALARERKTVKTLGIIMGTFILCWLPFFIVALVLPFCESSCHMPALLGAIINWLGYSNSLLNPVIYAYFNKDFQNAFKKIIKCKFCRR

Compound	Ki
CCCN(CCCCN1C(=O)CC2(CCCC2)CC1=O)C1COc2cccc(O)c2C1 (stereo in doubt; 228)	10 nM
CCCN(C1COc2cccc(OC)c2C1)N1C(=O)C2CCCC2C1=O (stereo in doubt; 247)	1 nM
CCCN(C1COc2cccc(OC)c2C1)N1C(=O)C2CCCC2C1=O (stereo in doubt; 255)	0.501 nM
CCCN(CCCCN1C(=O)CC2(CCCC2)CC1=O)C1COc2cccc(O)c2C1 (stereo in doubt; 258)	0.501 nM
CN(C)CCc1c[nH]c2ccc(O)cc12 [BUFOTENINE]	25.1 nM
COc1ccccc1OCCNCC(O)COc1cccc2[nH]c3ccccc3c12 (stereo not drawn) [CARVEDILOL]	3.16 nM
CCN(CC)C(=O)Nc1ccc(OCC(O)CNC(C)(C)C)c(C(C)=O)c1 (stereo not drawn) [CELIPROLOL]	8910 nM
Cn1cc(C(F)(F)F)nc1-c1ccc(OCC(O)CNCCOc2ccc(O)c(C(N)=O)c2)cc1 (stereo not drawn) [CGP-20712A]	603 nM
CN(C)CCCC1(c2ccc(F)cc2)OCc2cc(C#N)ccc21 (stereo not drawn) [CITALOPRAM]	50100 nM
C[C@H](CCc1ccccc1)NC[C@H](O)c1ccc(O)c(C(N)=O)c1 [DILEVALOL]	295 nM
CC(C)NCC(O)COc1ccccc1-n1cccc1 (stereo not drawn) [ISAMOLTAN]	49 nM
COc1ccc2[nH]cc(CCN(C)C)c2c1 [MEBUFOTENIN]	5.5 nM
C=CCOc1ccccc1OCC(O)CNC(C)C (stereo not drawn) [OXPRENOLOL]	93.3 nM
CC(C)(C)NC[C@H](O)COc1ccccc1C1CCCC1 [PENBUTOLOL]	2.4 nM
c1ccc(N2CCNCC2)cc1 [PHENYLPIPERAZINE]	1510 nM
CC(C)NCC(O)COc1cccc2[nH]ccc12 (stereo not drawn) [PINDOLOL]	21.9 nM
CC(C)(C)NCC(O)COc1cccc2c1SCCC2 (stereo not drawn) [TERTATOLOL]	18.6 nM
CC(C)(C)NC[C@H](O)COc1nsnc1N1CCOCC1 [TIMOLOL]	617 nM
